# Source: the supplement of paper PMC11061612
# Legend:
# Test in all cases: Bliss excess, mean over the matrix (fraction); higher = more synergy
# [1] = test system: EKVX (Non-Small Cell Lung Carcinoma)
# Summary of the method: (§1)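 Bliss excess equals the observed combination effect minus the expected value EA + EB − EA·EB, where EA and EB are the effects of each agent alone. Combination Emax is the second-highest inhibition within the matrix. Inhibition was scaled from CellTiter-Glo 2.0 luminescence, with 0 set by vehicle wells and 1 by blank wells, after 72 hours of two-drug dosing of cells plated in 1536-well plates.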
# [2] = test system: HCT-116 (Colorectal Carcinoma)
# Summary of the method: as §1
# [3] = test system: WSU-DLCL2 (B-Cell Non-Hodgkin's Lymphoma)
# Summary of the method: as §1
# [4] = test system: CAL-39 (Other Solid Carcinomas)
# Summary of the method: as §1
# A172 (Glioblastoma) = test system: A172 (Glioblastoma)
# Summary of the method: as §1
# [5] = test system: BICR78 (Oral Cavity Carcinoma)
# Summary of the method: as §1
# [6] = test system: SK-UT-1 (Other Solid Carcinomas)
# Summary of the method: as §1
# EW-22 (Ewing's Sarcoma) = test system: EW-22 (Ewing's Sarcoma)
# Summary of the method: as §1
# SK-MEL-1 (Melanoma) = test system: SK-MEL-1 (Melanoma)
# Summary of the method: as §1
# [7] = test system: YT (Other Blood Carcinomas)
# Summary of the method: as §1
# [8] = test system: HOP-92 (Non-Small Cell Lung Carcinoma)
# Summary of the method: as §1
# [9] = test system: DOK (Oral Cavity Carcinoma)
# Summary of the method: as §1
# [10] = test system: JHH-6 (Hepatocellular Carcinoma)
# Summary of the method: as §1
# [11] = test system: U-118-MG (Low Grade Glioma)
# Summary of the method: as §1
# [12] = test system: ETK-1 (Biliary Tract Carcinoma)
# Summary of the method: as §1
# [13] = test system: MEG-01 (Chronic Myelogenous Leukemia)
# Summary of the method: as §1
# [14] = test system: GDM-1 (Acute Myeloid Leukemia)
# Summary of the method: as §1
# [15] = test system: PA-TU-8902 (Pancreatic Carcinoma)
# Summary of the method: as §1
# [16] = test system: EFM-192A (Breast Carcinoma)
# Summary of the method: as §1
# [17] = test system: SLVL (B-Cell Non-Hodgkin's Lymphoma)
# Summary of the method: as §1
Compound,Bliss excess [1],Bliss excess [2],Bliss excess [3],Bliss excess [4],Bliss excess (A172 (Glioblastoma)),Bliss excess [5],Bliss excess [6],Bliss excess (EW-22 (Ewing's Sarcoma)),Bliss excess (SK-MEL-1 (Melanoma)),Bliss excess [7],Bliss excess [8],Bliss excess [9],Bliss excess [10],Bliss excess [11],Bliss excess [12],Bliss excess [13],Bliss excess [14],Bliss excess [15],Bliss excess [16],Bliss excess [17]
"COc1cccc(OCCCN)c1-c1cc(Nc2cnc(C#N)cn2)n[nH]1 [Prexasertib] + Cc1cc2ncnn2cc1Nc1ncc2c(n1)n(C1CCOCC1)c(=O)n2C [AZD7648] (first compound max 1 µM, 7x7, partner max 10 µM)",-0.0474,-0.0164,0.0071,-0.0122,-0.0573,-0.0379,-0.0227,-0.0519,-0.0247,-0.0508,0.0218,0.0019,0.0194,-0.0584,0.059,-0.0363,-0.058,-0.0059,-0.0199,0.0204
"COc1cccc(OCCCN)c1-c1cc(Nc2cnc(C#N)cn2)n[nH]1 [Prexasertib] + O=C(c1cc(Cc2n[nH]c(=O)c3ccccc23)ccc1F)N1CCN(C(=O)C2CC2)CC1 [Olaparib] (first compound max 1 µM, 7x7, partner max 10 µM)",-0.0217,0.0121,-0.0311,-0.008,-0.0474,-0.0261,-0.0422,-0.0447,-0.0435,-0.0314,-0.0692,-0.0269,0.0128,-0.0445,0.0573,-0.0981,-0.0516,-0.0783,-0.0365,-0.0051
"COc1cc2c(cc1OCCCCCOc1cc3c(cc1OC)C(=O)N1C=C(C)C[C@H]1C=N3)N=C[C@@H]1CC(C)=CN1C2=O [SG3199] + O=C(c1cc(Cc2n[nH]c(=O)c3ccccc23)ccc1F)N1CCN(C(=O)C2CC2)CC1 [Olaparib] (first compound max 0.001 µM, 7x7, partner max 10 µM)",-0.0424,-0.0523,-0.0058,-0.0306,0.0064,-0.0456,-0.0181,-0.0544,-0.0239,0.019,-0.0048,-0.0368,-0.0353,-0.0488,-0.0021,-0.0326,-0.0311,-0.0291,-0.053,-0.0314
"CCc1c2c(nc3ccc(O)cc13)-c1cc3c(c(=O)n1C2)COC(=O)[C@]3(O)CC [SN-38] + CN(C)CCCOc1ccc(-c2ccc3ncc4c(c3c2)n(C2CCOCC2)c(=O)n4C)cn1 [AZD0156] (first compound max 0.3 µM, 7x7, partner max 1 µM)",-0.0142,0.0669,0.0312,-0.0039,0.0443,-0.0014,0.0533,0.0276,-0.0583,-0.0872,0.027,0.0323,-0.0159,-0.0108,0.0083,-0.0413,-0.0216,0.0406,-0.0268,0.0191
"CC(=O)Nc1cccc(-n2c(=O)n(C3CC3)c(=O)c3c(Nc4ccc(I)cc4F)n(C)c(=O)c(C)c32)c1 [Trametinib] + Cc1nc(-c2cn3c(n2)-c2ccc(-c4cnn(C(C)(C)C(N)=O)c4)cc2OCC3)n(C(C)C)n1 [Taselisib] (first compound max 1 µM, 7x7, partner max 10 µM)",0.136,0.124,0.0464,0.0657,0.0645,0.0654,0.0411,-0.0042,0.0238,-0.0043,0.14,0.0767,0.152,-0.0083,0.134,0.0324,0.0571,0.108,0.0042,0.134
"CC1(C)CCC(CN2CCN(c3ccc(C(=O)NS(=O)(=O)c4ccc(NCC5CCOCC5)c([N+](=O)[O-])c4)c(Oc4cnc5[nH]ccc5c4)c3)CC2)=C(c2ccc(Cl)cc2)C1 [Venetoclax] + C1CN(CCC1(C(=O)N[C@@H](CCO)C2=CC=C(C=C2)Cl)N)C3=NC=NC4=C3C=CN4 [Capivasertib] (first compound max 1 µM, 7x7, partner max 3 µM)",-0.0306,-0.0801,0.0415,-0.0183,-0.0461,-0.0342,0.0153,0.0137,-0.0561,0.0073,-0.0245,-0.0532,-0.0791,-0.0494,-0.0619,-0.0349,-0.0325,-0.0752,-0.046,-0.0284
"CC1(C)CCC(CN2CCN(c3ccc(C(=O)NS(=O)(=O)c4ccc(NCC5CCOCC5)c([N+](=O)[O-])c4)c(Oc4cnc5[nH]ccc5c4)c3)CC2)=C(c2ccc(Cl)cc2)C1 [Venetoclax] + C=CCn1c(=O)c2cnc(Nc3ccc(N4CCN(C)CC4)cc3)nc2n1-c1cccc(C(C)(C)O)n1 [AZD1775] (first compound max 1 µM, partner max 1 µM)",-0.075,-0.0765,0.0465,-0.0308,-0.0833,0.0011,0.0562,0.139,-0.0539,-0.0039,0.0046,-0.0582,-0.0348,-0.0704,-0.0661,0.0146,0.132,-0.0622,-0.0253,0.0249
"CC1(C)CCC(CN2CCN(c3ccc(C(=O)NS(=O)(=O)c4ccc(NCC5CCOCC5)c([N+](=O)[O-])c4)c(Oc4cnc5[nH]ccc5c4)c3)CC2)=C(c2ccc(Cl)cc2)C1 [Venetoclax] + CCN(CCO)CCCOc1ccc2c(Nc3cc(CC(=O)Nc4cccc(F)c4)[nH]n3)ncnc2c1 [AZD2811] (first compound max 1 µM, 7x7, partner max 1 µM)",-0.044,0.008,0.301,-0.0113,-0.0296,-0.0393,0.0491,0.0583,-0.022,-0.0328,0.0135,-0.0249,-0.049,-0.0032,-0.0793,-0.0108,0.0676,-0.0417,0.0097,0.0685
"CC1(C)CCC(CN2CCN(c3ccc(C(=O)NS(=O)(=O)c4ccc(NCC5CCOCC5)c([N+](=O)[O-])c4)c(Oc4cnc5[nH]ccc5c4)c3)CC2)=C(c2ccc(Cl)cc2)C1 [Venetoclax] + CN(C)CCCOc1ccc(-c2ccc3ncc4c(c3c2)n(C2CCOCC2)c(=O)n4C)cn1 [AZD0156] (first compound max 1 µM, 7x7, partner max 1 µM)",-0.0365,-0.0286,0.0518,-0.0214,-0.0482,0.0047,-0.013,0.0003,-0.0397,0.0204,0.0047,-0.0184,-0.0391,-0.0076,-0.021,-0.0291,-0.0235,-0.0507,-0.0508,0.058
"CC1(C)CCC(CN2CCN(c3ccc(C(=O)NS(=O)(=O)c4ccc(NCC5CCOCC5)c([N+](=O)[O-])c4)c(Oc4cnc5[nH]ccc5c4)c3)CC2)=C(c2ccc(Cl)cc2)C1 [Venetoclax] + COc1cc(Nc2ncc3c(n2)-c2ccc(Cl)cc2C(c2c(F)cccc2OC)=NC3)ccc1C(=O)O [Alisertib] (first compound max 1 µM, 7x7, partner max 10 µM)",-0.0457,-0.0043,0.238,-0.0989,-0.108,-0.0276,0.0971,0.0313,0.0439,0.1,0.082,0.0114,-0.0311,-0.013,-0.0385,0.0985,0.0312,-0.0664,-0.0548,0.0761
"CC1(C)CCC(CN2CCN(c3ccc(C(=O)NS(=O)(=O)c4ccc(NCC5CCOCC5)c([N+](=O)[O-])c4)c(Oc4cnc5[nH]ccc5c4)c3)CC2)=C(c2ccc(Cl)cc2)C1 [Venetoclax] + C[C@@H]1COCCN1C2=NC(=NC(=C2)C3(CC3)[S@](=N)(=O)C)C4=C5C=CNC5=NC=C4 [AZD6738] (first compound max 1 µM, 7x7, partner max 10 µM)",-0.054,-0.0703,0.0423,-0.026,-0.0141,-0.0397,-0.0299,-0.0189,-0.027,0.0174,-0.0427,-0.0833,-0.03,-0.0106,-0.0562,-0.0256,-0.0163,-0.0236,-0.0377,-0.0162
"CC1(C)CCC(CN2CCN(c3ccc(C(=O)NS(=O)(=O)c4ccc(NCC5CCOCC5)c([N+](=O)[O-])c4)c(Oc4cnc5[nH]ccc5c4)c3)CC2)=C(c2ccc(Cl)cc2)C1 [Venetoclax] + C[C@@H](Nc1cc(F)cc(F)c1)c1cc(C(=O)N(C)C)cc2c(=O)cc(N3CCOCC3)oc12 [AZD8186] (first compound max 1 µM, 7x7, partner max 3 µM)",0.0566,-0.0421,0.0951,-0.106,-0.0414,-0.0423,-0.0141,0.0333,-0.0239,0.0317,-0.0212,-0.0548,-0.0135,-0.0383,-0.0284,-0.0492,0.15,-0.0453,-0.0501,0.0395
